The text below walks through data of PMC8286840, “Identifying SARS-CoV-2 antiviral compounds by screening for small molecule inhibitors of Nsp3 papain-like protease” (Biochemical Journal, 2021).

Assay [1] has as its target T1, SARS-CoV-2 PLpro (nsp3 1564–1878) (Severe acute respiratory syndrome coronavirus 2, UniProt P0DTD1). Put plainly: biochemical. On the set-up: FRET-quenched peptide (Pro3) cleavage by PLpro, 10 min pre-incubation, slope over 20 min, normalised to no-compound control. The following applies: low concentration screen, read-out: % of control remaining.
Assay [2] concerns the target T1, SARS-CoV-2 PLpro (nsp3 1564–1878). Briefly: biochemical. More on the design: FRET-quenched peptide (Pro3) cleavage by PLpro, 10 min pre-incubation, slope over 20 min, normalised to no-compound control. As to conditions: high concentration screen, read-out: % of control remaining.

Structures can show the parent of a compound that is named as a salt. Where two headings read alike, the source gives them in different places.

With `COc1ccc(-n2c(SCC#N)nc3sc4c(c3c2=O)CCCC4)cc1` [Necrostatin-5], the remaining activity at 1.25 µM in assay [1] (Well no.=6060) came to 98.5%. For the same compound, the remaining activity at 3.75 µM in assay [2] (Well no.=6060) is 95.8%.
Take `CCCc1c2oc(C(=O)O)cc(=O)c2cc2c(=O)cc(C(=O)O)n(CC)c12` [Nedocromil]: in assay [1] (Well no.=6525), the remaining activity at 1.25 µM was determined as 95.3%. Moreover, the remaining activity at 3.75 µM in assay [2] (Well no.=6525) was 95%.
`CCc1nn(CCCN2CCN(c3cccc(Cl)c3)CC2)c(=O)n1CCOc1ccccc1` [Nefazodone (hydrochloride)]: the remaining activity at 1.25 µM in assay [1] (Well no.=6765) worked out at 97.2%. Moreover, the remaining activity at 3.75 µM in assay [2] (Well no.=6765) came to 92.8%.
As to `CCc1nn(CCCN2CCN(c3cccc(Cl)c3)CC2)c(=O)n1CCOc1ccccc1` [Nefazodone], the remaining activity at 1.25 µM in assay [1] (Well no.=2009) worked out at 101%. The remaining activity at 3.75 µM in assay [2] (Well no.=2009) is 101%.
As for `Cc1c(O)cccc1C(=O)N[C@@H](CSc1ccccc1)[C@H](O)CN1C[C@H]2CCCC[C@H]2C[C@H]1C(=O)NC(C)(C)C` [Nelfinavir mesylate], the remaining activity at 1.25 µM in assay [1] (Well no.=2201) amounted to 95.1%; in assay [1] (Well no.=8156), 102%. Moreover, the remaining activity at 3.75 µM in assay [2] (Well no.=2201) was 97.3%; in assay [2] (Well no.=8156), 103%.
For the compound `O=C(/C=C/c1ccc(O)c(O)c1)O[C@@H]1C[C@@](O)(C(=O)O)C[C@@H](O)[C@@H]1O` [Neochlorogenic acid], in assay [1] (Well no.=6490), the remaining activity at 1.25 µM amounted to 98%. Besides, the remaining activity at 3.75 µM in assay [2] (Well no.=6490) was found to be 98.3%.
As for `COc1ccc([C@@H]2CC(=O)c3c(O)cc(O[C@@H]4O[C@H](CO)[C@@H](O)[C@H](O)[C@H]4O[C@@H]4O[C@@H](C)[C@H](O)[C@@H](O)[C@H]4O)cc3O2)cc1O` [Neohesperidin], the remaining activity at 1.25 µM in assay [1] (Well no.=3444) came to 98.8%. Further, the remaining activity at 3.75 µM in assay [2] (Well no.=3444) amounted to 98.5%.
As for `NC[C@@H]1O[C@H](O[C@H]2[C@@H](O)[C@H](O[C@@H]3[C@@H](O)[C@H](N)C[C@H](N)[C@H]3O[C@H]3O[C@H](CN)[C@@H](O)[C@H](O)[C@H]3N)O[C@@H]2CO)[C@H](N)[C@@H](O)[C@@H]1O` [Neomycin], the remaining activity at 1.25 µM in assay [1] (Well no.=1911) was determined as 94.3%; in assay [1] (Well no.=3419), 87.7%. Besides, the remaining activity at 3.75 µM in assay [2] (Well no.=1911) was determined as 94.6%; in assay [2] (Well no.=3419) it was 90%.
For the compound `CN(C)C(=O)Oc1cccc([N+](C)(C)C)c1` [Neostigmine methyl sulfate], in assay [1] (Well no.=6077), the remaining activity at 1.25 µM amounted to 102%. Also, the remaining activity at 3.75 µM in assay [2] (Well no.=6077) stood at 101%.
Take `CN(C)C(=O)Oc1cccc([N+](C)(C)C)c1` [Neostigmine]: the remaining activity at 1.25 µM in assay [1] (Well no.=1558) was found to be 106%. Besides, in assay [2] (Well no.=1558), the remaining activity at 3.75 µM was 103%.
For the compound `NC(=O)Cc1cccc(C(=O)c2ccccc2)c1N` [Nepafenac], in assay [1] (Well no.=4761), the remaining activity at 1.25 µM is 103%. In addition, in assay [2] (Well no.=4761), the remaining activity at 3.75 µM was 104%.
Consider `NCc1c[nH]c(=S)n1[C@H]1CCc2c(F)cc(F)cc2C1` [Nepicastat hydrochloride], for which the remaining activity at 1.25 µM in assay [1] (Well no.=6033) came out at 100%. Also, the remaining activity at 3.75 µM in assay [2] (Well no.=6033) stood at 102%.
Turning to `CC(=O)NCCCC[C@H](N)C(=O)O` [Nepsilon-Acetyl-L-lysine], in assay [1] (Well no.=6211), the remaining activity at 1.25 µM came out at 116%. Also, the remaining activity at 3.75 µM in assay [2] (Well no.=6211) came to 106%.
For `CCN[C@@H]1C[C@H](N)[C@@H](O[C@H]2OC(CN)=CC[C@H]2N)[C@H](O)[C@H]1O[C@H]1OC[C@](C)(O)[C@H](NC)[C@H]1O` [Netilmicin Sulfate], the remaining activity at 1.25 µM in assay [1] (Well no.=4696) came out at 102%. Moreover, the remaining activity at 3.75 µM in assay [2] (Well no.=4696) was 101%.
Take `O=C(O)c1cccnc1` [Niacin]: the remaining activity at 1.25 µM in assay [1] (Well no.=6401) was 102%. Moreover, in assay [2] (Well no.=6401), the remaining activity at 3.75 µM stood at 96.9%.
On to `O=C(CCNNC(=O)c1ccncc1)NCc1ccccc1` [Nialamide], for which the remaining activity at 1.25 µM in assay [1] (Well no.=1091) was determined as 95.4%; in assay [1] (Well no.=1837), 97.6%. Further, the remaining activity at 3.75 µM is 93.8% in assay [2] (Well no.=1091) and 97.3% in assay [2] (Well no.=1837).
For `COC(=O)C1=C(C)NC(C)=C(C(=O)OCCN(C)Cc2ccccc2)C1c1cccc([N+](=O)[O-])c1` (stereo not shown) [Nicardipine hydrochloride], the remaining activity at 1.25 µM in assay [1] (Well no.=811) is 103%. For the same compound, the remaining activity at 3.75 µM in assay [2] (Well no.=811) was 103%.
For `COC(=O)C1=C(C)NC(C)=C(C(=O)OCCN(C)Cc2ccccc2)C1c1cccc([N+](=O)[O-])c1` (stereo not shown) [Nicardipine.HCl], the remaining activity at 1.25 µM in assay [1] (Well no.=1593) came out at 104%. Further, the remaining activity at 3.75 µM in assay [2] (Well no.=1593) amounted to 104%.
Turning to `CO[C@]12C[C@@H](COC(=O)c3cncc(Br)c3)CN(C)[C@@H]1Cc1cn(C)c3cccc2c13` [Nicergoline], the remaining activity at 1.25 µM in assay [1] (Well no.=1731) is 99.4%; in assay [1] (Well no.=6958) it was 102%. Moreover, the remaining activity at 3.75 µM in assay [2] (Well no.=1731) came out at 102%; in assay [2] (Well no.=6958), 109%.
Turning to `O=C(Nc1ccc([N+](=O)[O-])cc1Cl)c1cc(Cl)ccc1O` [Niclosamide], in assay [1] (Well no.=1093), the remaining activity at 1.25 µM stood at 99.3%. Besides, in assay [2] (Well no.=1093), the remaining activity at 3.75 µM came to 97.3%.
For the compound `O=C(NCCO[N+](=O)[O-])c1cccnc1` [Nicorandil], in assay [1] (Well no.=1812), the remaining activity at 1.25 µM came out at 99%. In addition, the remaining activity at 3.75 µM in assay [2] (Well no.=1812) worked out at 95.8%.
For `NC(=O)c1cccnc1` [Nicotinamide (Niacinamide)], in assay [1] (Well no.=4884), the remaining activity at 1.25 µM was 97.9%. The remaining activity at 3.75 µM in assay [2] (Well no.=4884) stood at 94.8%.
As for `NC(=O)c1ccc[n+]([O-])c1` [Nicotinamide N-oxide], the remaining activity at 1.25 µM in assay [1] (Well no.=6247) was found to be 105%; in assay [1] (Well no.=8269), 106%; in assay [1] (Well no.=8347), 101%. The remaining activity at 3.75 µM in assay [2] (Well no.=6247) came out at 107%; in assay [2] (Well no.=8269), 102%; in assay [2] (Well no.=8347), 92.3%.
On to `NC(=O)c1cccnc1` [Nicotinamide], for which, in assay [1] (Well no.=6305), the remaining activity at 1.25 µM came to 102%. Besides, the remaining activity at 3.75 µM in assay [2] (Well no.=6305) came to 99.5%.
On to `O=C(O)c1cccnc1` [Nicotinic Acid], for which the remaining activity at 1.25 µM in assay [1] (Well no.=8286) was determined as 95.6%. Moreover, in assay [2] (Well no.=8286), the remaining activity at 3.75 µM came out at 96.4%.
Consider `O=C(O)CNC(=O)c1cccnc1` [Nicotinuric acid], for which the remaining activity at 1.25 µM in assay [1] (Well no.=6537) came to 109%. For the same compound, the remaining activity at 3.75 µM in assay [2] (Well no.=6537) was found to be 105%.
Regarding `Cn1c(NCCN(CCO)CCCc2ccc([N+](=O)[O-])cc2)cc(=O)n(C)c1=O` [Nifekalant], the remaining activity at 1.25 µM in assay [1] (Well no.=1975) came out at 105%. In assay [2] (Well no.=1975), the remaining activity at 3.75 µM is 102%.
With `O=C(O)c1cccnc1Nc1cccc(C(F)(F)F)c1` [Niflumic acid], the results for the remaining activity at 1.25 µM in assay [1] (Well no.=995) and in assay [1] (Well no.=2011) were 99.1% and 102%, respectively. Also, the values for the remaining activity at 3.75 µM in assay [2] (Well no.=995) and in assay [2] (Well no.=2011) were 103% and 106%, respectively.
